Data on twelve molecules can be found in ChEMBL document CHEMBL1146323, “Design, synthesis, and evaluation of efflux substrate-metal chelator conjugates as potential antimicrobial agents” (2007).

Test [1] has as its system Escherichia coli. Briefly: Antimicrobial activity against Escherichia coli MC4100 assessed as inhibition zone at >2 mg/mL. The class given is functional, organism-based.
The next test concerns Bacillus subtilis. Kind of test: Antimicrobial activity against Bacillus subtilis. The class given is functional.
Test [2] concerns Escherichia coli. Briefly: Antimicrobial activity against Escherichia coli MC4100. The class given is functional.

In brackets after ≈: the same amount, converted by molar mass. Activity calls are given as the source filed them. The rule behind the calls is not given here.

What is called MIC is the least concentration at which growth counts as inhibited. Low values mean inhibition by little substance, high ones a need for much substance. For the molecule `O=C(CCN1c2ccccc2Sc2ccccc21)NCc1ccc(CN2CCOCCOCCOCCOCC2)cc1`, the result in the test with Escherichia coli [1] was inactive. This molecule returned an MIC with Bacillus subtilis of 2000 µg/mL (≈ 3380 µM).

In the test with Bacillus subtilis, `c1ccc2c(c1)Nc1ccccc1S2` [PHENOTHIAZINE] displayed an MIC of 500 µg/mL (≈ 2510 µM).

For the molecule `O=C(CCN1c2ccccc2Sc2ccc(C(F)(F)F)cc21)NCc1ccc(CN2CCOCCOCCOCCOCC2)cc1`, in the test with Escherichia coli [1], the outcome was inactive. For the same molecule, the MIC against Bacillus subtilis came out at 500 µg/mL (≈ 758 µM).

Consider `O=C(CCN1c2ccccc2Sc2ccccc21)NCc1ccc(CN(Cc2ccccn2)Cc2ccccn2)cc1`, for which, in the test on Escherichia coli [1], the result was inactive. This molecule had an MIC against Bacillus subtilis of 30 µg/mL (≈ 52.5 µM).

Take `O=C(CN1c2ccccc2Sc2ccccc21)NCc1ccc(CN2CCCNCCNCCCNCC2)cc1`: the figures for the MIC with Escherichia coli [2] and with Bacillus subtilis were 2000 µg/mL (≈ 3580 µM) and 7.8 µg/mL (≈ 14 µM), respectively.

Regarding `O=C(CCN1c2ccccc2Sc2ccc(C(F)(F)F)cc21)NCc1ccc(CN(Cc2ccccn2)Cc2ccccn2)cc1`, the outcome in the test with Escherichia coli [1] was inactive. The molecule further yielded an MIC against Bacillus subtilis of 16 µg/mL (≈ 25 µM).

Consider `O=C(CCCCCN1c2ccccc2Sc2ccccc21)NCc1ccc(CN2CCOCCOCCOCCOCC2)cc1`, for which, in the test on Escherichia coli [1], the outcome was inactive. The same molecule yielded an MIC against Bacillus subtilis of 60 µg/mL (≈ 94.7 µM).

Regarding `O=C(CCN1c2ccccc2Sc2ccccc21)OCc1ccc(-c2cc(-c3ccccn3)nc(-c3ccccn3)c2)cc1`, the result with Escherichia coli [1] was inactive.

On to `O=C(CCCCCN1c2ccccc2Sc2ccccc21)NCc1ccc(CN(Cc2ccccn2)Cc2ccccn2)cc1`, for which the outcome in the test with Escherichia coli [1] was inactive. Further, the MIC against Bacillus subtilis stood at 7.8 µg/mL (≈ 12.7 µM).

In turn, `NC[C@H]1O[C@H](O[C@H]2[C@H](O)[C@@H](O[C@H]3O[C@H](CO)[C@@H](O)[C@H](N)[C@H]3O)[C@H](N)C[C@@H]2N)[C@H](O)[C@@H](O)[C@@H]1O` [KANAMYCIN] yielded an MIC in the test on Bacillus subtilis below 3 µg/mL.

For the molecule `CC1(C)S[C@@H]2[C@H](NC(=O)[C@H](N)c3ccccc3)C(=O)N2[C@H]1C(=O)O` [AMPICILLIN], in the test on Bacillus subtilis, the minimum inhibitory concentration (MIC) was 25 µg/mL (≈ 71.5 µM).

Consider `O=C(CCCCCN1c2ccccc2Sc2ccccc21)OCc1ccc(-c2cc(-c3ccccn3)nc(-c3ccccn3)c2)cc1`, for which the outcome with Escherichia coli [1] was inactive. Also, the MIC in the test with Bacillus subtilis was found to be 500 µg/mL (≈ 788 µM).
